Laboratory results published in US10563263B2, “Genetic polymorphisms associated with statin response and cardiovascular diseases, methods of detection and uses thereof” (CELERA CORPORATION, priority 2010, dated 2020).

Tested on: CVD (CHD or stroke)
Test: WOSCOPS: SNP by pravastatin treatment interaction, logistic regression (synergy index), CVD endpoint
Type: in vivo, human
Conditions: for OR: WOSCOPS; for WOSCOPS OR: endpoint CVD
Excerpt: CARE was a secondary prevention trial and WOSCOPS was a primary prevention trial.
The CHD endpoint was defined in the analyses herein of CARE as a composite endpoint of fatal CHD, definite non-fatal MI, or revascularization, and was defined in the analyses herein of WOSCOPS as a composite endpoint of death from CHD, nonfatal MI, or revascularization. In both the CARE and WOSCOPS analyses herein, the CVD endpoint was defined as a composite endpoint of CHD or stroke. […] Revascularization, which can include percutaneous transluminal coronary angioplasty (PTCA), stent placement, and coronary artery bypass graft (CABG), are medical interventions that indicate the presence of CHD.
Cohort and case-only study designs were used to identify SNPs associated with response to statin treatment.
For each SNP, a logistic regression model having treatment status as the dependent variable and SNP as the independent predictor variable was performed, with terms for age, sex and race included in the model as covariates. The anti-log of the regression coefficient corresponding to the SNP is an estimate of the synergy index (SI) (Davis et al., “Imputing gene-treatment interactions when the genotype distribution is unknown using case-only and putative placebo analyses-a new method for the Genetics of Hypertension Associated Treatment (GenHAT) study”, Statistics in Medicine 23: (2004), pages 2413-2427). The SI is a ratio of odds ratios: for example in the CARE and WOSCOPS studies, the SI represents the factor by which the odds-ratio of statin treatment, compared with placebo, among major homozygous individuals is multiplied by in order to obtain the odds-ratio of treatment vs. placebo among heterozygous individuals; and multiplied by a second time to obtain the odds-ratio of treatment vs. placebo in minor homozygous individuals. […] In a randomized clinical trial, genotype and treatment are independent by design.

Compound: CC[C@H](C)C(=O)O[C@H]1C[C@H](O)C=C2C=C[C@H](C)[C@H](CC[C@@H](O)C[C@@H](O)CC(=O)O)[C@H]21 [Pravastatin, pravastatin]
- OR (rs1884902 allele C REC Imputed): 1.796
- OR (rs1913201 allele G ADD Imputed): 0.7632
- OR (rs1913201 allele G DOM Imputed): 0.5772
- OR (rs1944279 allele A ADD Imputed): 1.444
- OR (rs1987179 allele T DOM Imputed): 0.6667
- OR (rs1990023 allele T DOM Imputed): 0.6024
- OR (rs2016194 allele G DOM Imputed): 0.602
- OR (rs2024789 allele C ADD Imputed): 0.7464
- OR (rs2024902 allele A ADD Imputed): 2.395
- OR (rs2024902 allele A DOM Imputed): 2.659
- OR (rs2025107 allele A ADD Imputed): 2.387
- OR (rs2025107 allele A DOM Imputed): 2.904
- OR (rs2025108 allele T ADD Imputed): 2.387
- OR (rs2025108 allele T DOM Imputed): 2.904
- OR (rs2062448 allele T ADD Imputed): 0.4148
- OR (rs2062448 allele T DOM Imputed): 0.4153
- OR (rs2063591 allele C ADD Imputed): 0.7711
- OR (rs2063591 allele C DOM Imputed): 0.5884
- OR (rs2065604 allele C DOM Imputed): 0.4711
- OR (rs2066238 allele T DOM Imputed): 0.6821
- OR (rs2068051 allele G ADD Imputed): 0.6426
- OR (rs2095586 allele A DOM Imputed): 1.351
- OR (rs2108426 allele C DOM Imputed): 0.5994
- OR (rs2110664 allele A DOM Imputed): 1.697
- OR (rs2132242 allele A DOM Imputed): 0.6291
- OR (rs2151644 allele T DOM Imputed): 0.4711
- OR (rs2158958 allele A DOM Imputed): 0.6021
- OR (rs2158961 allele G DOM Imputed): 0.6113
- OR (rs2164099 allele G ADD Imputed): 1.424
- OR (rs2173254 allele G REC Imputed): 0.3756
- OR (rs2188079 allele C ADD Imputed): 1.5
- OR (rs2190304 allele G REC Imputed): 0.628
- OR (rs2190597 allele T DOM Imputed): 0.7825
- OR (rs2190598 allele T DOM Imputed): 0.6021
- OR (rs2190600 allele A DOM Imputed): 0.6022
- OR (rs2218084 allele T REC Imputed): 4.673
- OR (rs2290193, rec, Caseonly, CVD, pravastatin vs placebo): 0.35
- OR (rs2626130, add, Caseonly, CVD, pravastatin vs placebo): 1.37
- OR (rs4289236, add, Caseonly, CVD, pravastatin vs placebo): 1.49
- OR (rs4611134, rec, Caseonly, CVD, pravastatin vs placebo): 1.56
- OR (rs4643388, add, Caseonly, CVD, pravastatin vs placebo): 1.38
- OR (rs6911817, add, Caseonly, CVD, pravastatin vs placebo): 5.32
- OR (rs7327364, dom, Caseonly, CVD, pravastatin vs placebo): 0.64
- OR (rs7497613, rec, Caseonly, CVD, pravastatin vs placebo): 0.43
- OR (rs7767024, add, Caseonly, CVD, pravastatin vs placebo): 1.69
- OR (rs8051893, dom, Caseonly, CVD, pravastatin vs placebo): 0.63
- OR (rs9658127, add, Caseonly, CVD, pravastatin vs placebo): 5.32
- OR (rs10088524, dom, Caseonly, CVD, pravastatin vs placebo): 1.80
- OR (rs11925875, dom, Caseonly, CVD, pravastatin vs placebo): 0.57
- OR (rs17076972 allele C REC Imputed): 1.85
- OR (rs17189710 allele T ADD Imputed): 1.429
- OR (rs17196143 allele A ADD Imputed): 1.543
- OR (rs17353809 allele G ADD Imputed): 1.616
- OR (rs17446418 allele G DOM Imputed): 0.6878
- OR (rs17530747 allele T DOM Imputed): 0.6878
- OR (rs17546598, dom, Caseonly, CVD, pravastatin vs placebo): 2.07
- OR (rs17604285 allele C ADD Imputed): 0.4148
- OR (rs17604285 allele C DOM Imputed): 0.4153
- OR (rs17662322 allele T DOM Imputed): 0.6835
- OR (rs17769826 allele T ADD Imputed): 1.616
- OR (rs17821641 allele T ADD Imputed): 1.571
- WOSCOPS OR (rs151806, source cohort, model dom): 0.67
- WOSCOPS OR (rs205279, source Caseonly, model add): 1.60
- WOSCOPS OR (rs312929, source cohort, model add): 0.79
- WOSCOPS OR (rs316720, source cohort, model add): 0.78
- WOSCOPS OR (rs354342, source Caseonly, model add): 0.62
- WOSCOPS OR (rs610118, source Caseonly, model dom): 0.62
- WOSCOPS OR (rs624460, source cohort, model add): 0.74
- WOSCOPS OR (rs669684, source cohort, model add): 0.77
- WOSCOPS OR (rs945020, source cohort, model dom): 0.72
- WOSCOPS OR (rs1035618, source Caseonly, model add): 1.48
- WOSCOPS OR (rs1051344, source cohort, model dom): 0.64
- WOSCOPS OR (rs1167245, source Caseonly, model dom): 0.51
- WOSCOPS OR (rs1349282, source cohort, model dom): 0.55
- WOSCOPS OR (rs1861326, source Caseonly, model dom): 0.67
- WOSCOPS OR (rs2023650, source Caseonly, model add): 0.62
- WOSCOPS OR (rs2145540, source Caseonly, model dom): 0.70
- WOSCOPS OR (rs2157673, source Caseonly, model add): 1.56
- WOSCOPS OR (rs2231496, source Caseonly, model add): 0.67
- WOSCOPS OR (rs2268650, source Caseonly, model dom): 0.71
- WOSCOPS OR (rs2376764, source Caseonly, model rec): 0.48
- WOSCOPS OR (rs2492367, source cohort, model add): 0.68
- WOSCOPS OR (rs2495295, source Caseonly, model dom): 0.66
- WOSCOPS OR (rs2534752, source cohort, model dom): 1.74
- WOSCOPS OR (rs2695026, source Caseonly, model add): 0.61
- WOSCOPS OR (rs2793086, source Caseonly, model add): 0.72
- WOSCOPS OR (rs2843171, source Caseonly, model dom): 0.61
- WOSCOPS OR (rs3213616, source cohort, model add): 0.62
- WOSCOPS OR (rs3798544, source Caseonly, model dom): 1.78
- WOSCOPS OR (rs4243071, source Caseonly, model rec): 0.41
- WOSCOPS OR (rs4626316, source cohort, model dom): 0.38
- WOSCOPS OR (rs4866354, source Caseonly, model dom): 0.31
- WOSCOPS OR (rs4869033, source Caseonly, model rec): 0.47
- WOSCOPS OR (rs4986146, source cohort, model add): 0.66
- WOSCOPS OR (rs4993917, source Caseonly, model dom): 0.67
- WOSCOPS OR (rs5017584, source Caseonly, model rec): 1.98
- WOSCOPS OR (rs5021480, source Caseonly, model rec): 1.87
- WOSCOPS OR (rs7179134, source cohort, model rec): 3.50
- WOSCOPS OR (rs7612715, source cohort, model add): 0.55
- WOSCOPS OR (rs7671659, source cohort, model dom): 1.43
- WOSCOPS OR (rs9292827, source Caseonly, model dom): 0.27
- WOSCOPS OR (rs9375683, source cohort, model dom): 1.31
- WOSCOPS OR (rs9487284, source cohort, model dom): 0.70
- WOSCOPS OR (rs9896077, source cohort, model dom): 0.71
- WOSCOPS OR (rs10088505, source Caseonly, model dom): 1.78
- WOSCOPS OR (rs10444402, source Caseonly, model add): 0.65
- WOSCOPS OR (rs10494924, source Caseonly, model dom): 0.68
- WOSCOPS OR (rs10517923, source Caseonly, model rec): 1.60
- WOSCOPS OR (rs10849442, source Caseonly, model rec): 0.59
- WOSCOPS OR (rs10889215, source cohort, model add): 1.95
- WOSCOPS OR (rs11076320, source Caseonly, model dom): 0.68
- WOSCOPS OR (rs11610993, source Caseonly, model dom): 0.49
- WOSCOPS OR (rs12155847, source Caseonly, model dom): 1.61
- WOSCOPS OR (rs17347854, source Caseonly, model dom): 0.62
- WOSCOPS OR (rs17740227, source Caseonly, model dom): 1.53
- WOSCOPS OR (rs33910446, source Caseonly, model rec): 2.23
- WOSCOPS OR (rs72746987, source Caseonly, model dom): 0.34
